This note sets out measurements from patent US6699505B2, “Method of increasing the efficacy of antibiotics by compexing with cyclodextrins” (Massachusetts Institute of Technology, priority 2000, dated 2004).

In assay [1] the test system is B. forsythus. The assay is described as follows: Zone of inhibition of PLGA chips in wells of seeded agar plates. Type of assay: cell-based. To be noted: for zone of inhibition of bacterial growth: PLGA chips 4 mm×5 mm×0.5 mm in wells, B. forsythus agar, anaerobic 37° C., measured daily. From the text:
(§1) FIG. 1 is a graph charting the change in size of the zone of growth inhibition of the bacterium P. gingivalis over time. The antibiotic being tested (complexed or non-complexed) is applied to a specific point near or within an area of bacterial growth on an agar plate. The bioactive agent diffuses from the application point and causes lysis of already growing bacteria, or inhibition of growth of bacteria within the zone of diffusion. The diameter of bacterial lysis or growth inhibition is a measure of the potency of the bioactive agent. […] A relatively small zone of lysis or growth inhibition indicates a less biologically active agent.
(§2) Increased biological activity of the antibiotic chlorhexidine was tested by placing chips composed of chorhexidine (C) and clorhexidine digluconate (Cg) complexed with hydroxypropyl-β-cyclodextrin (H) or methylated β-cyclodextrin adjacent to a tooth in agar seeded with P. gingivalis or B. forsythus. The agar plates were incubated to allow growth of the bacterium for 12-15 days and the zone of inhibition of bacterial growth around each chip was measured. An increase in biological activity was measured by an increase in the size of the zone of inhibition around the chip containing the complexed antibiotic compared to the size of the zone around the chip containing the uncomplexed antibiotic.
(§3) More particularly, the method used the following steps:
(§4) Mix: 5 g Trypticase Soy Agar
(§5) 6.5 g Brain Heart Infusion
(§6) Autoclave mixture for 15 minutes at 121 degree Celsius.
(§7) Cool to 50 degrees Celsius for 1 hour.
(§8) Add: 12.5 mL defibrinated sheep blood.
(§9) 300 uL N-acetylmuramic acid (100x).
(§10) Prepared B. forsythus and P. gingivalis culture solution with an optical density of 1˜10^9 cells/mL.
(§11) Added 2 mL of bacteria culture into their respective agar solutions.
(§12) Pour 20 mL agar solution into 150 mm diameter petri dishes.
(§13) Place well former into petri dishes.
(§14) Allow agar to harden by cooling to room temperature for 1 hour.
(§15) Place petri dishes in anaerobic chamber at 37° C. in an atmosphere consisting of 80% nitrogen, 10% hydrogen, and 10% carbon dioxide for 2 days.
(§16) Place 4 mm×5 mm×0.5 mm PLGA chips composed of: Cg, C, C/H, Cg/M, M, and H into preformed wells.
(§17) Masses of each component based on 25 wt % of Cg with respect to a 10 mg chip.
(§18) Add MilliQ water into wells to keep chips hydrated.
(§19) Keep petri dishes in anaerobic chamber during entire experiment.
(§20) Measure zones of inhibition daily using electronic calipers from the center of the well.
(§21) Experiments done in triplicate.

Assay [2] relates to P. gingivalis. The description is as above. The format is cell-based. To be noted: PLGA chips 4 mm×5 mm×0.5 mm in wells, anaerobic 37° C., measured daily.
Description: as §1, §2, §3, §4, §5, §6, §7, §8, §9, §10, §11, §12, §13, §14, §15, §16, §17, §18, §19, §20, §21

In the case of `[H]/N=C(\N/C(=N/[H])NCCCCCCNC(=N)NC(=N)Nc1ccc(Cl)cc1)Nc1ccc(Cl)cc1` [C, Chlorhexidine], the zone of inhibition entry in assay [1] (B. forsythus, FIG. 1 right panel) is “about 40 mm”. The “zone of inhibition of bacterial growth” value in assay [1] and in assay [2] was “statistically similar” in each case.

For `N=C(NCCCCCCNC(=N)NC(=N)Nc1ccc(Cl)cc1)NC(=N)Nc1ccc(Cl)cc1.O=C(O)[C@H](O)[C@@H](O)[C@H](O)[C@H](O)CO.O=C(O)[C@H](O)[C@@H](O)[C@H](O)[C@H](O)CO` [Cg, Chlorhexidine Digluconate], the “zone of inhibition of bacterial growth” value in assay [1] and in assay [2] was “statistically similar” throughout.
